Data from patent US9233961B2, “Compounds and compositions for the treatment of parasitic diseases” (Novartis AG, priority 2013, dated 2016).
pEC50: −log10 of the molar value. Like-named read-outs stand apart in the source and are kept apart here.

Columns and labels:
[1] = patients injected; cited from earlier work
[2] = test system: Leishmania donovani axenic amastigote parasites; assay: Leishmania donovani axenic amastigote proliferation assay; format: cell-based; conditions: axenic amastigotes in vitro, read-out: L. donovani amastigotes EC50
Outline: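 L. donovani axenic amastigotes (9600/well) in RPMI 1640 with 20% heat-inactivated FBS, folic acid, adenosine, glucose and 25 mM MES, pH 5.5, were incubated with compounds for 2 days at 37 °C, 5% CO2. Viability read by CellTiter-Glo luminescence; EC50 calculated.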

[3] = test system: L. donovani HU3 strain in mouse peritoneal macrophages; assay: Assay for proliferation of Leishmania parasites in mouse peritoneal macrophages; format: cell-based, Leishmania donovani; conditions: Leishmania donovani, Peritoneal macrophage, read-out: L. donavani Macrophage EC50
Outline: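 BALB/c peritoneal macrophages infected 24 h with L. donovani HU3 amastigotes taken from spleens of mice infected 9–11 weeks, then treated with compound for 5 days at 37° C, 5% CO2. Parasite nuclei counted by SYBR Green imaging after fixation; EC50 from percentage inhibition.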

[4] = test system: Trypanosoma brucei Lister 427 strain bloodstream form; assay: Assay for proliferation of kinetoplastid parasite Trypanosoma brucei; format: cell-based
Outline: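 Bloodstream-form T. brucei Lister 427 in HMI-9 medium was exposed to compound (DMSO vehicle) for 48 hours at 37° C, 5% CO2. Parasite growth was read as ATP by CellTiter-Glo luminescence, with EC50 calculated from percent inhibition.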

[5] = test system: Trypanosoma cruzi amastigotes (Tulahuen strain) cultured in 3T3 fibroblast cells; assay: Assay for proliferation of kinetoplastid parasite Trypanosoma cruzi; format: cell-based; conditions: 144 h, Tulahuen amastigotes in 3T3 fibroblast cells, 6 day incubation, read-out: T cruzi EC50
Source text: Assay for Proliferation of Kinetoplastid Parasite Trypanosoma cruzi.
Compounds of the invention can be assayed to measure their capacity to inhibit proliferation of kinetoplastid parasite Trypanosoma cruzi. The screening procedure is for identifying compounds with inhibitor activity against Trypanosoma cruzi amastigotes cultured in 3T3 fibroblast cells. The assay is done using the mammalian stage (amastigotes) of T. cruzi that replicates in the intracellular space of host cells. The host cells are initially infected with the culture-derived trypomastigotes that rapidly invade and then divide as amastigotes. The protocol uses the Tulahuen strain of T. cruzi that has been engineered to express the E. coli beta-galactosidase gene (Lac-Z) (Antimicr. Agents Chemoth. 40:2592, 1996). This allows for a colorimetric readout by using the substrate CPRG and an absorbance plate reader.
3T3 fibroblast cells are re-suspended in RPMI-1640 medium without phenol red medium supplemented with 10% FBS (heat inactivated), 100 μg/ml penicillin, and 100 μg/ml streptomycin. Forty μL of suspension (1,000 cells) is dispensed into 384-well plates and incubated overnight at 37° C. temperature and in atmosphere containing 5% CO2. The following day, 100 nL of compounds of the invention in DMSO are added to plate wells containing 3T3 cells. At the same time control compounds (benznidazole and nifurtimox) and DMSO are added to plates to serve as the positive and negative controls, respectively. After that, 10 μL of media containing 10,000 T. cruzi trypomastigotes are added to each plate well and plates are placed back into incubators. After 6 day incubation, 10 μL of reagent solution (0.6 mM CPRG, 0.6% NP-40 in PBS) is added to plates and incubated at room temperature for 2 hours. Absorbance is then measured on SpectraMax Gemini […] to determine relative number of T. cruzi cells present in each plate well. The percentage inhibition of 50%, EC50, is calculated for each compound. […] Typically, the EC50 is 10 μM or less.

[6] = Lister 427 bloodstream form, 48 hours, read-out: T. brucei EC50

| SMILES | patients who developed reactive encephalopathy (convulsions, progressive coma, or psychotic reactions) [1] | reactive encephalopathy cases that result in death [1] | pEC50 [2] | pEC50 [3] | pEC50 [4, 6] | pEC50 ([4]; T. brucei Lister 427, 48 hours, Cell Titer Glo, read-out: EC50) | pEC50 [5] |
| --- | --- | --- | --- | --- | --- | --- | --- |
| Nc1nc(N)nc(Nc2ccc([As]3SCC(CO)S3)cc2)n1 (stereo not shown) [Melarsoprol] | 3-10% | 10-70% |  |  |  |  |  |
| NC(=O)c1ccc(-c2cnc3nc(-c4cc(NC(=O)c5ccco5)ccc4Cl)[nH]c3c2)cc1 [Compound 19, N-{3-[6-(4-carbamoylphenyl)-1H-imidazo[4,5-b]pyridin-2-yl]-4-chlorophenyl}furan-2-carboxamide] |  |  | 6.78 | < 4.30 | 8.24 | 8.22 | < 4.70 |
| Cc1cnc2nc(-c3cc(NC(=O)c4ccc(Cl)o4)ccc3Cl)[nH]c2c1 [Compound 86] |  |  | 6.08 | 5.51 | 6.74 |  | 7.16 |
| Cc1cnc2nc(-c3cc(NC(=O)c4ccccc4N(C)C)ccc3Cl)[nH]c2c1 [Compound 150] |  |  | < 4.60 | 4.64 | 4.92 |  | 5.05 |
| Cc1cnc2nc(-c3cc(NC(=O)c4cc(Cl)ccc4Cl)ccc3Cl)[nH]c2c1 [Compound 98] |  |  | 4.78 | 4.63 | 5.54 |  | 5.93 |
